Test results reported in the NIST ThermoML archive (doi:10.1016/j.fluid.2006.01.022).

Key:
[1] = xn = mol fraction of the nth substance listed; details: Liquid, Alternating current cell with electrodes
[2] = 101.33 kPa, Liquid, Alternating current cell with electrodes

[Br][Al]([Br])[Br] [aluminum bromide] + CCn1cc[n+](C)c1.[Br-]
electrical conductivity [S/m], [1]
Details	x1 = 0.3	x1 = 0.6
258.1 K	0.048	0.0432
263.1 K	0.0898	0.0717
268.1 K	0.122	0.113
273.1 K	0.22	0.16
278.1 K	0.284	0.226
283.1 K	0.454	0.338
288.1 K	0.599	0.447
293.1 K	0.784	0.645
298.1 K	0.979	0.877
303.1 K	1.21	1.14
308.1 K	1.49	1.42
313.1 K	1.82	1.75
318.1 K	2.14	2.11
323.1 K	2.54	2.56
328.1 K	3.05	3.04
333.1 K	3.5	3.62
338.1 K	4.05	4.22
343.1 K	4.6	4.87
348.1 K	5.14	5.56
353.1 K	5.79	6.35
358.1 K	6.95	7.16
363.1 K	7.62	7.79
368.1 K	8.28	8.57
373.1 K	8.95	9.46
378.1 K	9.7	10.4
383.1 K	10.6	11.4
388.1 K	11.4	12.3
393.1 K	12	12.8
398.1 K	–	13.7
403.1 K	–	14.5
408.1 K	–	15.3
413.1 K	–	15.8
418.1 K	–	16.5

[Cl][Al]([Cl])[Cl] [aluminum chloride] + CCn1cc[n+](C)c1.[Cl-]
electrical conductivity [S/m], [1]
Details	x1 = 0.33	x1 = 0.6
253.1 K	0.0315	0.0377
258.1 K	0.0515	0.0517
263.1 K	0.0855	0.1
268.1 K	0.127	0.143
273.1 K	0.195	0.206
278.1 K	0.3	0.283
283.1 K	0.39	0.385
288.1 K	0.53	0.515
293.1 K	0.705	0.669
298.1 K	0.907	0.861
303.1 K	1.11	1.08
308.1 K	1.37	1.32
313.1 K	1.67	1.6
318.1 K	2.02	1.91
323.1 K	2.4	2.26
328.1 K	2.81	2.64
333.1 K	3.29	3.11
338.1 K	3.8	3.56
343.1 K	4.34	4.02
348.1 K	4.9	4.56
353.1 K	5.68	5.08
358.1 K	6.27	5.63
363.1 K	7.13	6.17
368.1 K	7.95	7.28
373.1 K	8.5	8.09
378.1 K	9.11	9.1
383.1 K	9.97	9.72
388.1 K	10.9	10.1
393.1 K	11.8	10.4
398.1 K	12.3	–
403.1 K	12.7	–

CCOS(=O)(=O)[O-].CCn1cc[n+](C)c1 [1-ethyl-3-methylimidazolium ethyl sulfate]
[2]
Details	electrical conductivity [S/m]
258.1 K	0.0286
263.1 K	0.0374
268.1 K	0.0495
273.1 K	0.0727
278.1 K	0.105
283.1 K	0.139
288.1 K	0.202
293.1 K	0.291
298.1 K	0.382
303.1 K	0.485
308.1 K	0.606
313.1 K	0.724
318.1 K	0.861
323.1 K	1.01
328.1 K	1.18
333.1 K	1.35
338.1 K	1.54
343.1 K	1.75
348.1 K	1.95
353.1 K	2.18
358.1 K	2.41
363.1 K	2.68
368.1 K	3
373.1 K	3.29
378.1 K	3.57
383.1 K	3.86
388.1 K	4.15
393.1 K	4.47
398.1 K	4.77
403.1 K	5.09
408.1 K	5.39
413.1 K	5.68
418.1 K	6
423.1 K	6.29
428.1 K	6.58
433.1 K	6.86

CCn1cc[n+](C)c1.F[B-](F)(F)F [1-ethyl-3-methylimidazolium tetrafluoroborate]
[2]
Details	electrical conductivity [S/m]
258.1 K	0.245
263.1 K	0.296
268.1 K	0.445
273.1 K	0.612
278.1 K	0.735
283.1 K	0.896
288.1 K	1.09
293.1 K	1.3
298.1 K	1.57
303.1 K	1.79
308.1 K	2.02
313.1 K	2.28
318.1 K	2.55
323.1 K	2.85
328.1 K	3.22
333.1 K	3.56
338.1 K	3.95
343.1 K	4.35
348.1 K	4.77
353.1 K	5.22
358.1 K	5.55
363.1 K	5.95
368.1 K	6.46
373.1 K	6.9
378.1 K	7.36
383.1 K	7.83
388.1 K	8.32
393.1 K	8.77
398.1 K	9.29
403.1 K	9.79
408.1 K	10.3
413.1 K	10.8
418.1 K	11.3
423.1 K	11.8
428.1 K	12.3
433.1 K	12.7
